US20050282755A1, “Compositions having antimicrobial activity and uses thereof” (priority 2004, published 2005)
Converted amounts (≈) assume the structure as drawn. Residues, ends and D or L forms follow the SMILES beside them. *: point of attachment. Lauroyl = CCCCCCCCCCCC(=O)*

Assays:
Assay type in all cases: cell-based
[1] = test system: Staphylococcus aureus ATCC 29213; test: MIC, NCCLS M7-A6 broth microdilution, cation-adjusted Mueller Hinton broth (Table 9, no superscript); settings: ATCC 29213
Summary of the method: (§1)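 Broth microdilution in cation-adjusted Mueller Hinton broth, log-phase inoculum giving 5×10^5 to 1×10^6 CFU/milliliter per well. Overnight incubation at 37° C. MIC taken as lowest peptide concentration with no visible turbidity versus a no-peptide control.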

Salmonella dublin (Lane) = test: MIC, NCCLS M7-A6 broth microdilution (Table 9, no superscript)
Summary of the method: as §1

[2] = test system: Pseudomonas aeruginosa ATCC 27853; test: as above; settings: ATCC 27853
Summary of the method: as §1

[3] = test system: Escherichia coli ATCC 25922; test: as above; settings: ATCC 25922
Summary of the method: as §1

[4] = test system: Staphylococcus epidermidis ATCC 12228; test: as above; settings: ATCC 12228
Summary of the method: as §1

[5] = test system: Candida albicans ATCC 18804; test: MIC in yeasts, NCCLS M27-A2 broth microdilution, RPMI 1640 (Table 9, letter e); settings: ATCC 18804
Protocol: Briefly, RPMI 1640 supplemented with glutamine and phenol red as a pH indicator was used in the broth microdilution method. A 96-well plate was inoculated so that the final inoculum of yeast for each well contained between 0.5×10^3 and 2.5×10^3 CFU/milliliter. […] Plates were incubated for 24 to 48 hours at 37° C. The lowest concentration of peptide that contained no visible growth was determined as the MIC. MIC values that utilized this method of MIC determination are indicated in Table 9 with a subscript letter “e.” “Peptide Number” corresponds to peptide compositions and corresponding designations in Table 3.

Row | MIC S. aureus [1] [µg/mL] | MIC S. dublin (Salmonella dublin (Lane)) [µg/mL] | MIC P. aeruginosa [2] [µg/mL] | MIC E. coli [3] [µg/mL] | MIC S. epidermidis [4] [µg/mL] | MIC C. albicans [5] [e ug/mL] | SMILES
1 | 2 (≈ 1.05 µM) | 2 (≈ 1.05 µM) | 4 (≈ 2.09 µM) | 4 (≈ 2.09 µM) | 1 (≈ 0.523 µM) | 2 | CCCCCCCCCCCC(=O)N[C@@H](CCCNC(=N)N)C(=O)N[C@@H](CO)C(=O)N[C@@H](CCCNC(=N)N)C(=O)N[C@@H](Cc1c[nH]c2ccccc12)C(=O)N[C@@H](CCCNC(=N)N)C(=O)N[C@@H](CC(=O)O)C(=O)N[C@H](C(=O)N[C@@H](C)C(=O)N[C@@H](CCCNC(=N)N)C(=O)N[C@@H](CC(N)=O)C(=O)N[C@@H](Cc1ccccc1)C(=O)N[C@@H](CC(C)C)C(=O)N[C@@H](CCCNC(=N)N)C(N)=O)C(C)C [Peptide 135, Lauryl-RSRWRDVARNFLR-NH2] (Lauroyl-RSRWRDVARNFLR-NH2)
2 | >64 | >64 | >64 | >64 | >64 | 2 | CCCCCCCCCCCC(=O)N[C@@H](CCCNC(=N)N)C(=O)N[C@@H](CO)C(=O)N[C@@H](CCCNC(=N)N)C(=O)N[C@@H](Cc1c[nH]c2ccccc12)C(=O)N[C@@H](CCCNC(=N)N)C(=O)N[C@@H](CC(=O)O)C(=O)N[C@H](C(=O)N[C@@H](CC(C)C)C(=O)N[C@@H](CCCNC(=N)N)C(=O)N[C@@H](CC(N)=O)C(=O)N[C@@H](Cc1ccccc1)C(=O)N[C@@H](CC(C)C)C(=O)N[C@@H](CCCNC(=N)N)C(=O)N[C@@H](CC(C)C)C(=O)N[C@@H](CC(C)C)C(N)=O)C(C)C [Peptide 138, Lauryl-RSRWRDVLRNFLRLL-NH2] (Lauroyl-RSRWRDVLRNFLRLL-NH2)
3 | 64 (≈ 27.8 µM) | >64 | >64 | 64 (≈ 27.8 µM) | 8 (≈ 3.47 µM) | 4 | CCCCCCCCCCCC(=O)N[C@@H](CCCNC(=N)N)C(=O)N[C@@H](CO)C(=O)N[C@@H](CCCNC(=N)N)C(=O)N[C@@H](Cc1c[nH]c2ccccc12)C(=O)N[C@@H](CCCNC(=N)N)C(=O)N[C@@H](CC(=O)O)C(=O)N[C@H](C(=O)N[C@@H](C)C(=O)N[C@@H](CCCNC(=N)N)C(=O)N[C@@H](CC(N)=O)C(=O)N[C@@H](Cc1ccccc1)C(=O)N[C@@H](CCSC)C(=O)N[C@@H](CCCNC(=N)N)C(=O)N[C@@H](Cc1c[nH]c2ccccc12)C(=O)N[C@@H](Cc1c[nH]c2ccccc12)C(N)=O)C(C)C [Peptide 142, Lauryl-RSRWRDVARNFMRWW-NH2] (Lauroyl-RSRWRDVARNFMRWW-NH2)
4 | 32 (≈ 14.3 µM) | 64 (≈ 28.5 µM) | >64 | >64 | 8 (≈ 3.57 µM) | 32 | CCCCCCCCCCCC(=O)N[C@@H](CCCNC(=N)N)C(=O)N[C@@H](CO)C(=O)N[C@@H](CCCNC(=N)N)C(=O)N[C@@H](Cc1c[nH]c2ccccc12)C(=O)N[C@@H](CCCNC(=N)N)C(=O)N[C@@H](CC(=O)O)C(=O)N[C@@H](Cc1c[nH]c2ccccc12)C(=O)N[C@@H](C)C(=O)N[C@@H](CCCNC(=N)N)C(=O)N[C@@H](CC(N)=O)C(=O)N[C@@H](Cc1c[nH]c2ccccc12)C(=O)N[C@@H](CCSC)C(=O)N[C@@H](CCCNC(=N)N)C(=O)N[C@@H](Cc1c[nH]c2ccccc12)C(N)=O [Peptide 144, Lauryl-RSRWRDWARNWMRW-NH2] (Lauroyl-RSRWRDWARNWMRW-NH2)
5 | >64 | >64 | >64 | >64 | 16 (≈ 6.58 µM) | 2 | CCCCCCCCCCCC(=O)N[C@@H](CCCNC(=N)N)C(=O)N[C@@H](CO)C(=O)N[C@@H](CCCNC(=N)N)C(=O)N[C@@H](Cc1c[nH]c2ccccc12)C(=O)N[C@@H](CCCNC(=N)N)C(=O)N[C@@H](CC(=O)O)C(=O)N[C@@H](Cc1c[nH]c2ccccc12)C(=O)N[C@@H](C)C(=O)N[C@@H](CCCNC(=N)N)C(=O)N[C@@H](CC(N)=O)C(=O)N[C@@H](Cc1c[nH]c2ccccc12)C(=O)N[C@@H](CCSC)C(=O)N[C@@H](CCCNC(=N)N)C(=O)N[C@@H](Cc1c[nH]c2ccccc12)C(=O)N[C@@H](Cc1c[nH]c2ccccc12)C(N)=O [Peptide 145, Lauryl-RSRWRDWARNWMRWW-NH2] (Lauroyl-RSRWRDWARNWMRWW-NH2)
6 | 64 (≈ 28 µM) | 64 (≈ 28 µM) | >64 | >64 | 4 (≈ 1.75 µM) | 2 | CCCCCCCCCCCC(=O)N[C@@H](CCCNC(=N)N)C(=O)N[C@@H](CO)C(=O)N[C@@H](CCCNC(=N)N)C(=O)N[C@@H](Cc1c[nH]c2ccccc12)C(=O)N[C@@H](CCCNC(=N)N)C(=O)N[C@@H](CC(=O)O)C(=O)N[C@@H](Cc1c[nH]c2ccccc12)C(=O)N[C@@H](C)C(=O)N[C@@H](CCCNC(=N)N)C(=O)N[C@@H](CC(N)=O)C(=O)N[C@@H](Cc1c[nH]c2ccccc12)C(=O)N[C@@H](CCSC)C(=O)N[C@@H](CCCNC(=N)N)C(=O)N[C@@H](CC(C)C)C(=O)N[C@@H](CC(C)C)C(N)=O [Peptide 146, Lauryl-RSRWRDWARNWMRLL-NH2] (Lauroyl-RSRWRDWARNWMRLL-NH2)
